Data published in patent publication US20260007673A1, “ROCK2 INHIBITORS FOR THE TREATMENT OF VIRAL INFECTIONS” (GRAVITON BIOSCIENCE BV, priority 2022, published 2026).
Entries after “also recorded” stand apart in the source; their conditions may differ.

How the values were obtained:
SARS-CoV-2 [1] = assay: In vitro SARS-CoV-2 model in primary human airway epithelial cells, viral load by qRT-PCR; assay type: cell-based; details: 5 μM and 25 μM, read at 24 and 48 hours (FIGS. 11-12)
Experimental: A 50 mM stock solution of Compound 2 (in DMSO) was diluted using PBS to concentrations of 100, 75, 50, 25, 10, 5, 1, 0.3, 0.1, and 0.03 μM. About 30,000 immortalized human airway epithelial cells (Calu-3) (see, FIG. 1-10) or primary human airway epithelial cells (Normal Human Small Airway Epithelial Cells; Sigma) (see, FIGS. 11-12) were grown to about 100,000 cells per well in a 96-well format. The cells were challenged with 10^2 or 10^3 PFU SARS-CoV-2 (standard CDC SARS-CoV-2 strain) in triplicate and incubated for 6 h at 37° C., followed by washing. The cells were then treated with Compound 2 or negative control by adding 10 μL of a solution of Compound 2 (0.03-100 μM) or negative control solution (DMSO in PBS) in triplicate and incubating for 2 h at 37° C. A positive control consisted of remdesivir (RDV; 10 μM). […] The cells were maintained until the second endpoint readout at 48 h (the first occurring at 24 h post-infection). […]
Viral infection/load was analyzed by qPCR (qRT-PCR). […] Viral or host RNA levels in the supernatant were determined using the TaqPath™ 1-Step RT-qPCR Master Mix (Thermo Fisher) on a CFX Connect Real-Time System (Bio-Rad) instrument using the following primers: Fwd: 5′-[…]-3′; Rev. […]
Datasets were analyzed and plotted in GraphPad Prism (version 9.0.2). […]

SARS-CoV-2 [2] = assay: 7-day clinical trial in patients with mild to moderate COVID-19; assay type: in vivo
SARS-CoV-2 [3] = assay: In vitro SARS-CoV-2 model in immortalized human airway epithelial cells (Calu-3), viral load by qRT-PCR; assay type: cell-based; details: for inhibition of viral replication (viral titers): 10 μM
Experimental: A 50 mM stock solution of Compound 2 (in DMSO) was diluted using PBS to concentrations of 100, 75, 50, 25, 10, 5, 1, 0.3, 0.1, and 0.03 μM. About 30,000 immortalized human airway epithelial cells (Calu-3) (see, FIG. 1-10) or primary human airway epithelial cells (Normal Human Small Airway Epithelial Cells; Sigma) (see, FIGS. 11-12) were grown to about 100,000 cells per well in a 96-well format. The cells were challenged with 10^2 or 10^3 PFU SARS-CoV-2 (standard CDC SARS-CoV-2 strain) in triplicate and incubated for 6 h at 37° C., followed by washing. The cells were then treated with Compound 2 or negative control by adding 10 μL of a solution of Compound 2 (0.03-100 μM) or negative control solution (DMSO in PBS) in triplicate and incubating for 2 h at 37° C. A positive control consisted of remdesivir (RDV; 10 μM). An additional control (3 wells) was treated with Compound 2 at the highest concentration, but not challenged with virus. The cells were maintained until the second endpoint readout at 48 h (the first occurring at 24 h post-infection). In some instances, the cellular media was replaced 24 h after infection with untreated culture medium (“unmediated medium”) or culture medium containing the positive control (RDV) or Compound 2 (“mediated medium”), see, FIG. 10.
Viral infection/load was analyzed by qPCR (qRT-PCR). RNA from cells was extracted with TRIzol reagent (Thermo Fisher) according to manufacturer's instructions. Viral or host RNA levels in the supernatant were determined using the TaqPath™ 1-Step RT-qPCR Master Mix (Thermo Fisher) on a CFX Connect Real-Time System (Bio-Rad) instrument using the following primers: Fwd: 5′-[…]-3′; Rev. 5′-[…]-3′.
Datasets were analyzed and plotted in GraphPad Prism (version 9.0.2). Analytic simulations of dose-response curves using the median-effect principle and mass-action Law were carried out using CompuSyn (https://www.combosyn.com/).

[4] = tested on: SARS-CoV-2 2019-nCoV/USA-WA1/2020 strain; assay: Lung viral load by qPCR in infected human ACE2 transgenic mice; assay type: in vivo; details: mice infected with 100 or 1000 pfu; 300 mg/kg daily oral gavage; 7, 14, 21 days; vs vehicle and remdesivir (FIGS. 13-14)
Calu-3 cells = assay: Cellular toxicity: LDH assay; assay type: cell-based, human; details: 0.03-100 μM, LDH assay at 48 h (FIGS. 4-5)
Experimental: The toxicity of Compound 2 was measured at concentrations of 0.1, 0.3, 1, 10, 25, 50, 75, and 100 μM in Calu-3 cells by LDH ([…] dehydrogenase) assay (Clontech) according to the manufacturer's instructions. A positive control consisted of saponin (0.5%). A negative control consisted of DMSO (0.2%).

[5] = tested on: SARS-CoV-2 infected lung tissue; assay: Lung fibrosis by H&E staining in infected human ACE2 transgenic mice; assay type: in vivo; details: infected mouse lung tissue 7, 14, 21 days after infection; vs vehicle (FIG. 16)

Cn1c(C(=O)N2CC(F)(F)C2)cc2ccc(-c3nccc(Nc4ccc(-c5cn[nH]c5)cc4)n3)cc21 [Compound 2, (6-(4-((4-(1H-pyrazol-4-yl)phenyl)amino)pyrimidin-2-yl)-1-methyl-1H-indol-2-yl)(3,3-difluoroazetidin-1-yl)methanone]
efficacy against SARS-CoV-2 infection (viral concentration) (SARS-CoV-2 [1]): efficacy at 5 μM and 25 μM concentrations
clinical efficacy in treating mild to moderate COVID-19 (SARS-CoV-2 [2]; 200 mg or 400 mg once daily for 7 days plus standard of care (FIGS. 17-20)): clinical efficacy
viral titers, as negative conversion rates of SARS-CoV-2 nucleic acid detection (SARS-CoV-2 [2]; 200 mg or 400 mg once daily for 7 days, relative to Control (FIG. 18)): lower viral titers
inflammation, as levels of interleukin 6 (SARS-CoV-2 [2]; 200 mg/day and 400 mg/day (FIG. 19)): reduced levels of inflammation
inflammation, as levels of C-reactive protein (CRP) (SARS-CoV-2 [2]; 200 mg/day and 400 mg/day (FIG. 20)): reduced levels of inflammation
relief rate of sustained clinical symptoms (SARS-CoV-2 [2]; 400 mg once daily for 7 days, relative to Control and to 200 mg (FIG. 17)): substantial improvement
inhibition of viral replication (viral titers) (SARS-CoV-2 [3]; Calu-3, read at 24 and 48 hours, compared to negative control (0.1% DMSO) and positive control (RDV) (FIGS. 6-7)): inhibiting viral replication
inhibition of viral replication (viral titers) (SARS-CoV-2 [3]; Calu-3, read at 24 and 48 hours, treated 0, 2, 4, 8 h post-infection, compared to control (FIGS. 1-3)): inhibiting viral replication
dose response of inhibition of viral replication (SARS-CoV-2 [3]; Calu-3, 1, 5, 10 and 25 μM, read at 24 and 48 hours, given 0-10 h after infection (FIGS. 8A-9F)): Dose responses were observed at all time points
viral concentration after repeat dosing (SARS-CoV-2 [3]; Calu-3, 48 h after infection, medium containing compound replenished at 24 h (FIG. 10)): further decreased viral concentration
viral titers of SARS-CoV-2 (SARS-CoV-2 [3]; immortalized human airway epithelial cells infected with SARS-CoV-2, FIGS. 1-12): substantially reduce viral titers
viral load in the lung [4]: significantly reduced viral load
cellular toxicity by LDH (Calu-3 cells): low cellular toxicity
pulmonary fibrosis (histology) [5]: reducing pulmonary fibrosis; also recorded: reduces lung fibrosis
